According to PMC2364952, “The Anti-Inflammatory Activity of Boron Derivatives in Rodents” (Metal-Based Drugs, 1995):
pIC50: −log10 of the molar value.

How the values were obtained:
[1] = target: prostaglandin cyclooxygenase; test: Prostaglandin cyclooxygenase activity, macrophages; assay type: cell-based, mouse (J774 macrophages); conditions: Table 7
[2] = target: elastase; test: Elastase activity, mouse macrophages; assay type: cell-based, mouse (J774 macrophages); conditions: Table 5; read-out: IC50 Elastase, Mouse Macrophage
[3] = test system: elastase; test: Elastase activity, UMR-106 osteosarcoma cells; assay type: cell-based; conditions: Table 6; read-out: IC50 Elastase, Rat UMR-106 Bone Osteosarcoma
[4] = test system: trypsin; test: Trypsin proteolytic activity, mouse macrophages; assay type: cell-based, mouse (J774 macrophages); conditions: Table 5; read-out: IC50 Trypsin, Mouse Macrophage
[5] = test system: acetic acid induced stretch reflex; test: Local analgesic screen (acetic acid writhing); assay type: in vivo, CF1 mice; conditions: for Mice Writhing Reflex: 8 mg/kg I.P., Table 2; for reduction of the reflex action: mice, acetic acid induced local pain, 8 mg/kg
[6] = target: acid phosphatase; test: Acid phosphatase activity, mouse macrophages; assay type: cell-based, mouse (J774 macrophages); conditions: Table 3; read-out: IC50 Acid Phosphatase, Mouse Macrophage
[7] = test system: trypsin; test: Trypsin activity, UMR-106 osteosarcoma cells; assay type: cell-based; conditions: Table 6; read-out: IC50 Trypsin, Rat UMR-106 Bone Osteosarcoma
[8] = test system: neutral cathepsin; test: Cathepsin activity, UMR-106 osteosarcoma cells; assay type: cell-based; conditions: Table 6; read-out: IC50 Neutral Cathepsin, Rat UMR-106 Bone Osteosarcoma
[9] = test system: cathepsin; test: Cathepsin activity, mouse macrophages; assay type: cell-based, mouse (J774 macrophages); conditions: Table 3; read-out: IC50 Cathepsin, Mouse Macrophage
[10] = test system: adjuvant (M. butyricum) arthritis; test: Chronic adjuvant arthritic screen; assay type: in vivo; conditions: rats; for activity in chronic arthritis screen / reduction of pannus: 8 mg/kg/day; for Rat Chronic Arthritis: 8 mg/kg/day I.P., Day 3 to Day 21, Table 2
[11] = test system: tail flick response to heat; test: Hot plate tail flick screen; assay type: in vivo, CF1 male mice; conditions: for Mice Tail Flick: 8 mg/kg I.P., hot plate, Table 2; for tail flick assay time: mice, 8 mg/kg
[12] = test system: carrageenan-induced inflammation of paw; test: Carrageenan-induced paw edema, rats; assay type: in vivo, Sprague Dawley male rats; conditions: 8 mg/kg x 2, I.P., Table 2;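 further: paw weight increase as percent of control rats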
[13] = test system: carrageenan-induced pleural fluid; test: Anti-pleurisy screen; assay type: in vivo, Sprague Dawley male rats; conditions: for pleurisy edema in rats: 8 mg/kg; for Rat Pleurisy: rats, 8 mg/kg I.P., 1 h before and 3 h after carrageenan, Table 2;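 on Rat Pleurisy: Pleural fluid volume as percent of control rats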
[14] = target: aryl sulphatase; test: Aryl sulfatase activity, mouse macrophages; assay type: cell-based, mouse (J774 macrophages); conditions: Table 3; read-out: IC50 Aryl Sulfatase, Mouse Macrophage
[15] = target: T1, 5'-lipoxygenase (Mus musculus, UniProt P48999); test: 5'-Lipoxygenase activity, mouse macrophages; assay type: cell-based; conditions: Table 7; read-out: IC50 5'-Lipoxygenase, Mouse Macrophage
T1 construct: endogenous in cells; host or cells: mouse macrophages (J774A as maintained above)
T1 sequence (P48999 1-674): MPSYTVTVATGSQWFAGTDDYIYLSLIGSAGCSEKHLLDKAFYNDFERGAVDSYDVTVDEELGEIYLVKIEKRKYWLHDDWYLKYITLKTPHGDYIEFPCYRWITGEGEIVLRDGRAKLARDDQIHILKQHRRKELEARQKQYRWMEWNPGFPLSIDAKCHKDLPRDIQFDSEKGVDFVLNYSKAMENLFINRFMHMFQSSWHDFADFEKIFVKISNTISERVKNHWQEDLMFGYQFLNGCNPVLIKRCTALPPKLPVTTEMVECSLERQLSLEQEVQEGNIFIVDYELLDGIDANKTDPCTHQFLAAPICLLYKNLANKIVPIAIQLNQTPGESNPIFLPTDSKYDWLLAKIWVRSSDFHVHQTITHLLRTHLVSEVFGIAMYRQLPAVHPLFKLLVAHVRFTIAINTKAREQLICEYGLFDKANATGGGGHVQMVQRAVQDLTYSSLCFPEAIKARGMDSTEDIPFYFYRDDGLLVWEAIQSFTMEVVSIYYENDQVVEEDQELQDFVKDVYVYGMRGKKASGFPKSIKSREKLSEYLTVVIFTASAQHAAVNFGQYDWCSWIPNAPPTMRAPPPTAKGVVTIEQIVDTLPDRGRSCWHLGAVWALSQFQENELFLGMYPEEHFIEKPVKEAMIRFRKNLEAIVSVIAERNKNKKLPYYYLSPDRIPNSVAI

[16] = target: T2, 5'-lipoxygenase (Homo sapiens, UniProt P09917); test: 5'-Lipoxygenase activity, human leukocytes; assay type: cell-based; conditions: Table 7
T2 construct: endogenous in cells; host or cells: RMPI 1788 human leukocytes
T2 sequence (P09917 1-674): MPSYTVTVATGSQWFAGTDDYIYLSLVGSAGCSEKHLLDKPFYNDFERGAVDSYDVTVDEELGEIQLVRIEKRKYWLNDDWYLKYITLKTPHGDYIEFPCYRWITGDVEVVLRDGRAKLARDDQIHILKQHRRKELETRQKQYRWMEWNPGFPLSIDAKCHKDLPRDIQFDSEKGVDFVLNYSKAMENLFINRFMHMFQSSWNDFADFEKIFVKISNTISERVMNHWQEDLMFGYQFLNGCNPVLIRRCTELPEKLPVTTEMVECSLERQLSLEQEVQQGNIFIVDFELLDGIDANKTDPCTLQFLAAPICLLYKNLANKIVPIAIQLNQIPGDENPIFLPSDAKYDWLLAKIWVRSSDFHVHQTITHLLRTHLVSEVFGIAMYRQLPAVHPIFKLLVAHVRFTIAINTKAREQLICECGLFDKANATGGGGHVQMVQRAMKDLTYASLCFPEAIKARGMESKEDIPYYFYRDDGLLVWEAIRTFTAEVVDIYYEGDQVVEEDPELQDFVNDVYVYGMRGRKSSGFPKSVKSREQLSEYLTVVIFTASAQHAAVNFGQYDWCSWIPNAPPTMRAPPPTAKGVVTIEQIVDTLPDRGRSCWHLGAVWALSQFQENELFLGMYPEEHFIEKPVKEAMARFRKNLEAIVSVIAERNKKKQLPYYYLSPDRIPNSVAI

[17] = target: T3, prostaglandin cyclooxygenase (Bos taurus, UniProt O62664); test: Prostaglandin synthetase from bovine seminal vesicles; assay type: biochemical; conditions: Table 7; read-out: IC50 Prostaglandin Cyclooxygenase, Beef Seminal Vesicle
T3 construct: purified commercial prostaglandin synthetase from bovine seminal vesicles (Miles Research Products); purchased Miles Research Products; host or cells: bovine seminal vesicles (tissue preparation)
T3 sequence (O62664 25-600): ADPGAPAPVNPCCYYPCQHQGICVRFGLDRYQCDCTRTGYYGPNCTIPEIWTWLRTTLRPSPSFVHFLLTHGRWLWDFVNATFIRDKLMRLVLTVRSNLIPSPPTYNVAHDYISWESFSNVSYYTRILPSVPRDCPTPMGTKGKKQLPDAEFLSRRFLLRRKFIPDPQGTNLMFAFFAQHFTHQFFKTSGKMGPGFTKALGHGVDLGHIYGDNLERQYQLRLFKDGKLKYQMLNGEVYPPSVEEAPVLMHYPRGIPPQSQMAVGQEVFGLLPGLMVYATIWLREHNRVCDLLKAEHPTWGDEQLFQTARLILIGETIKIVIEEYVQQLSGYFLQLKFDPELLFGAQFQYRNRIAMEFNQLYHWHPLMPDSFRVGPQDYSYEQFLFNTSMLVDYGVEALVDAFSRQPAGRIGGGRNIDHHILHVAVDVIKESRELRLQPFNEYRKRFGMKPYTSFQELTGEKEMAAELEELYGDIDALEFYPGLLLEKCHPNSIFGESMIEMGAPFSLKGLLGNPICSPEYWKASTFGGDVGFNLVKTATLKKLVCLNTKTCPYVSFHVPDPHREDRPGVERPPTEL

[18] = test system: prostaglandin cyclooxygenase; test: Prostaglandin cyclooxygenase activity, Be Sal cells; assay type: cell-based, human (Be Sal osteofibrolytic cells); conditions: Table 7; read-out: IC50 Prostaglandin Cyclooxygenase, Be Sal Osteofibro
[19] = test system: carrageenan-induced inflammation of hind foot; test: Carrageenan-induced foot edema, mice; assay type: in vivo, CF1 male mice; conditions: for reduction of induced edema: mice, 8 mg/kg x 2, I.P., carrageenan

Row | SMILES | pIC50 [1] | pIC50 [2] | pIC50 [3] | pIC50 [4] | Mice Writhing Reflex [5] | reduction of the reflex action [5] | pIC50 [6] | pIC50 [7] | pIC50 [8] | pIC50 [9] | Rat Chronic Arthritis [10] | Rat Inflammatory [12] | pIC50 [14] | further results
1 | [BH3-][NH2+]C(C)(C)C [Compound 1] | 5.38 | 6.66 | 5.03 | 5.68 | 19 % of control | 80% | 5.09 | 5.11 | 5.33 | 5.34 | – | – | – | –
2 | C[NH2+][BH2-]C(=O)O [Compound 2] | 5.46 | 5.63 | 5.05 | 5.63 | 31 % of control | at least 45% | 6.05 | 5.00 | 5.24 | 5.02 | 53 % of control | 70 % of control | 5.08 | activity in chronic arthritis screen [10]: significantly active; Mice Tail Flick [11]: 147 % of control; tail flick assay time [11]: increased; pleurisy edema in rats [13]: reduced significantly; Rat Pleurisy [13]: 61 % of control
3 | C[N+](C)([BH2-]C(=O)O)CC[N+](C)(C)[BH2-]C(=O)O [Compound 7] | 5.73 | 5.56 | – | 5.63 | 55 % of control | at least 45% | 5.48 | – | – | 5.08 | 24 % of control | – | – | reduction of pannus [10]: greater than 75%
4 | CCOC(=O)[BH2-][NH+](C)C [Compound 20] | – | 5.48 | 4.99 | 5.69 | – | at least 45% | 5.95 | 5.04 | 5.18 | 5.40 | 13 % of control | – | 5.03 | reduction of pannus [10]: greater than 75%; pleurisy edema in rats [13]: reduced significantly; Rat Pleurisy [13]: 61 % of control
5 | C[NH+](C)[BH2-]C#N [Compound 33] | 5.23 | 5.60 | 5.04 | 5.61 | 15 % of control | 80% | 5.95 | 5.12 | 5.20 | 5.26 | – | 61 % of control | 5.04 | pIC50 [15]: 5.00; pIC50 [16]: 5.46
6 | CCCCCCCCCCCCCCCC[N+](C)(C)[BH2-]C#N [Compound 35] | – | 5.56 | 5.04 | 5.57 | 16 % of control | 80% | 6.48 | 5.14 | 5.20 | 5.30 | – | – | 5.15 | –
7 | C[N+](C)(C)[BH2-]C(C#N)c1ccccc1 (centres unmarked) [Compound 46] | 5.18 | 5.28 | – | 5.62 | 46 % of control | at least 45% | 5.11 | – | – | 5.59 | – | – | 5.47 | pIC50 [17]: 6.15; pIC50 [18]: 5.63; Mice Tail Flick [11]: 191 % of control; tail flick assay time [11]: increased
8 | CC[N+]#C[BH2-][N+](C)(C)C.F[B-](F)(F)F [Compound 74] | 5.82 | 5.63 | 5.00 | 5.74 | 40 % of control | at least 45% | 5.88 | 4.98 | 5.18 | 5.04 | – | 81 % of control | 5.22 | reduction of induced edema [19]: at least 40%
9 | C[N+](C)(C)[BH2-]C(=O)NO.Cl [Compound 77] | 5.11 | 5.83 | – | 5.67 | 41 % of control | at least 45% | 5.18 | – | – | 5.29 | – | – | 5.85 | pIC50 [18]: 5.96; Mice Tail Flick [11]: 139 % of control
10 | [BH3-][NH+]1CCOCC1 [Compound 78] | 5.83 | 5.23 | – | 5.62 | 15 % of control | 80% | 5.50 | – | – | 6.12 | 33 % of control | 83 % of control | – | activity in chronic arthritis screen [10]: significantly active; reduction of induced edema [19]: 45%
11 | O=C(O)[BH2-][NH+]1CCOCC1 [Compound 83] | – | 6.02 | 5.09 | 5.63 | – | – | 6.80 | 5.00 | 5.27 | 5.75 | – | – | 5.12 | reduction of induced edema [19]: at least 30%
12 | COc1ccc2c(c1)c(CC(=O)O)c(C)n2C(=O)c1ccc(Cl)cc1 [Indomethacin, indomethacin, reference compound] | – | – | – | – | 43 % of control | – | – | – | – | – | 55 % of control | 78 % of control | – | inhibition of induced inflammation ([19]; standards at their therapeutic dose (indomethacin 8 mg/kg x 2, pentoxifylline and phenylbutazone 50 mg/kg x 2)): 26%; Rat Pleurisy [13]: 12 % of control
